Test results reported in article PMC8272215 (2021).

What was measured:
[1] = test system: poly A-poly U (RNA, polymer) A/U; assay: fluorescent indicator displacement (DAPI); details: Na+ (50 mM sodium cacodylate); pH 7.4; DAPI displaced; polynucleotide 1-2 × 10^-5 M
[2] = test system: poly A-poly U (RNA, polymer) A/U; assay: UV melting at 260 nm; details: Na+ (50 mM sodium cacodylate); pH 7.4; r = [ligand]/[polynucleotide] = 0.05; caption says ctDNA, text b32 says poly A-poly U; per base
[3] = test system: poly A-poly U (RNA, polymer) A/U; assay: fluorescent indicator displacement (EB); details: Na+ (50 mM sodium cacodylate); pH 7.4; ethidium bromide displaced; polynucleotide 3-4 × 10^-5 M

ΔTm [2] | Compound | IC50 [1] | IC50 [3]
21.3 °C | NCCN(CCN)CCCNCCN1CCNCc2cccc(n2)CNCC1 | 0.85 [ligand]/[polynucleotide] ratio (dimensionless) | 0.63 [ligand]/[polynucleotide] ratio (dimensionless)
17.1 °C | c1cc2nc(c1)CNCCN(CCCNCCN1CCNCc3cccc(n3)CNCC1)CCNC2 | 0.45 [ligand]/[polynucleotide] ratio (dimensionless) | 0.86 [ligand]/[polynucleotide] ratio (dimensionless)
